Values of other authors, collected in patent publication US8822429B2, “Citicoline for the treatment of glaucoma and ocular hypertension” (Omikron Italia S.r.l., priority 2010, dated 2014).

Settings: taken orally

excreted in the feces: less than 1% | time of plasma peak after ingestion (first peak): 1 h | time of second, larger plasma peak (larger peak following the first): 24 h
Compound: C[N+](C)(C)CCOP(=O)(O)OP(=O)([O-])OC[C@H]1O[C@@H](n2ccc(N)nc2=O)[C@H](O)[C@@H]1O [Citicoline, cytidine-5′-diphosphocholine]
